This note sets out measurements from DBAASP.

Test systems include Escherichia coli UB1005; Candida albicans C627; Escherichia coli DC2; Streptococcus uberis; Staphylococcus aureus; Leuconostoc lactis; Escherichia coli; Pasteurella multocida; Bacillus cereus; Listeria innocua; Micrococcus luteus; Escherichia coli K99; Escherichia coli K88.
Holding throughout (experiment): ≥ marks a high value that may be exact or a test limit, other limits are often not marked, values filed in µg/mL are converted to µM
Experiment [1] has as its system Aeromonas salmonicida 97-4.
Experiment [2] deals with Escherichia coli CGSC 4908.
In experiment [3] the test system is Pseudomonas aeruginosa K799.
For experiment [4], the system named is Salmonella enterica serovar typhimurium MS7953s.
For experiment [5], the system named is Salmonella enterica subsp. enterica serovar Typhimurium ATCC 14028s.
The test system of experiment [6] is Pseudomonas aeruginosa Z61.
Experiment [7] concerns Staphylococcus aureus C623.
Experiment [8] concerns Aeromonas salmonicida 99-1.
Experiment [9] concerns Staphylococcus epidermidis C621.
Experiment [10] concerns Zymomonas mobilis ATCC 10988.
Experiment [11] concerns Staphylococcus epidermidis.
Experiment [12] has as its system Bacillus subtilis DSM 347.
Experiment [13] concerns Franconibacter helveticus DSM 18390.
In experiment [14] the test system is Escherichia coli DSM 1116.
The subject of experiment [15] is Staphylococcus xylosus DSM 20287.
The test system of experiment [16] is Micrococcus luteus NBRC 3333.
For experiment [17], the system named is Candida viswanathii NBRC 10321.
Experiment [18] relates to Staphylococcus epidermidis NBRC 12993.
Experiment [19] has as its system Aspergillus oryzae NBRC 100959.
Experiment [20] relates to Escherichia coli NBRC 3972.
In experiment [21] the test system is Salmonella enterica subsp. enterica serovar Typhimurium ATCC 14028.
Experiment [22] deals with Staphylococcus aureus ATCC 43300.
Experiment [23] has as its system Salmonella enterica subsp. enterica serovar Pullorum C79-13.
For experiment [24], the system named is Salmonella enterica subsp. enterica serovar Typhimurium C77-31.
Experiment [25] relates to Lacticaseibacillus rhamnosus 7469.
Experiment [26] concerns Escherichia coli ATCC 25922.
The test system of experiment [27] is Staphylococcus aureus ATCC 25923.
The test system of experiment [28] is Lactiplantibacillus plantarum 8014.
Experiment [29] deals with Lacticaseibacillus rhamnosus 1.0911.
Experiment [30] relates to Lacticaseibacillus rhamnosus 1.0385.
The subject of experiment [31] is Lacticaseibacillus rhamnosus 1.0936.
For experiment [32], the system named is Pseudomonas aeruginosa ATCC 27853.

In brackets after ≈: the same amount, converted by molar mass.

As a reminder, the MIC is the least concentration at which growth counts as inhibited. As to `CC(=O)[C@H](C)NC(=O)[C@H](C)NC(=O)[C@H](CC(N)=O)NC(=O)[C@H](CC(C)C)NC(=O)[C@H](Cc1ccc(O)cc1)NC(=O)CNC(=O)CNC(=O)CNC(=O)[C@H](Cc1cnc[nH]1)NC(=O)[C@H](Cc1cnc[nH]1)NC(=O)[C@@H](NC(=O)CNC(=O)[C@H](Cc1cnc[nH]1)NC(=O)[C@H](Cc1ccccc1)NC(=O)[C@H](CC(C)C)NC(=O)[C@H](CC(C)C)NC(=O)[C@H](CCCNC(=N)N)NC(=O)[C@H](Cc1ccccc1)NC(=O)[C@@H](N)Cc1ccccc1)C(C)C` [FFRLLFHGVHHGGGYLNAA], the MIC (in experiment [1]; in experiment [2]; in the experiment on Escherichia coli UB1005; in experiment [3]; in [4]; in the experiment with Candida albicans C627) was 30.3 µM (≈ 63.9 µg/mL) in each case. Further, the minimum inhibitory concentration (MIC) (in the experiment with Escherichia coli DC2; in [5]; in [6]; in experiment [7]; in experiment [8]; in [9]) was 30.3 µM (≈ 63.9 µg/mL) in each case.
In experiment [10], `CC[C@H](C)[C@H](NC(=O)[C@H](CCCCN)NC(=O)[C@H](CCC(N)=O)NC(=O)[C@@H](NC(=O)[C@@H](NC(=O)[C@H](CCCN=C(N)N)NC(=O)[C@H](CCCCN)NC(=O)[C@@H](N)Cc1ccccc1)[C@@H](C)CC)C(C)C)C(=O)N[C@@H](CCCCN)C(=O)N[C@@H](CC(=O)O)C(=O)N[C@@H](Cc1ccccc1)C(=O)N[C@@H](CC(C)C)C(=O)N[C@@H](CCCN=C(N)N)C(N)=O` [FKRIVQKIKDFLR] showed a minimal inhibitory concentration (MIC) of at least 118 µM.
On to `CC[C@H](C)[C@H](NC(=O)[C@H](CO)NC(=O)[C@H](CO)NC(=O)[C@H](C)NC(=O)[C@@H](NC(=O)[C@H](Cc1cnc[nH]1)NC(=O)CNC(=O)[C@H](C)NC(=O)[C@@H](NC(=O)[C@H](CCCCN)NC(=O)[C@H](CCCCN)NC(=O)[C@@H](NC(=O)[C@@H](NC(=O)[C@H](CC(=O)O)NC(=O)[C@H](Cc1ccccc1)NC(=O)[C@H](CC(C)C)NC(=O)CN)[C@@H](C)CC)C(C)C)[C@@H](C)CC)[C@@H](C)CC)C(N)=O` [GLFDIVKKIAGHIASSI], for which the MIC in the experiment on Streptococcus uberis is 28.3 µM (≈ 50 µg/mL); against Staphylococcus aureus, 28.3 µM (≈ 50 µg/mL); against Leuconostoc lactis, 3.39 µM (≈ 6 µg/mL); against Escherichia coli, over 56.5 µM; with Pasteurella multocida, at least 56.5 µM; against Bacillus cereus, at least 56.5 µM. For the same compound, the MIC against Listeria innocua was at least 56.5 µM; in experiment [11] it was 28.3 µM (≈ 50 µg/mL); in the experiment with Micrococcus luteus it was at least 56.5 µM.
As for `CC[C@H](C)[C@H](N)C(=O)N[C@@H](C)C(=O)N[C@@H](CCCCN)C(=O)N[C@H](C(=O)N[C@@H](C)C(=O)NCC(=O)N[C@@H](CCCCN)C(=O)N[C@H](C(=O)N[C@@H](C)C(=O)N[C@@H](CCCCN)C(=O)N[C@H](C(=O)N[C@@H](C)C(=O)NCC(=O)N[C@@H](CCCCN)C(=O)N[C@H](C(=O)N[C@@H](C)C(=O)N[C@@H](CCCCN)C(=O)N[C@H](C(=O)N[C@@H](C)C(=O)NCC(=O)N[C@@H](CCCCN)C(=O)N[C@H](C(=O)N[C@@H](C)C(N)=O)[C@@H](C)CC)[C@@H](C)CC)[C@@H](C)CC)[C@@H](C)CC)[C@@H](C)CC)[C@@H](C)CC` [IAKIAGKIAKIAGKIAKIAGKIA], the MIC in experiment [12] was 0.89 µM (≈ 2 µg/mL); in experiment [13], 1.26 µM (≈ 2.83 µg/mL); in experiment [14], 1.78 µM (≈ 4 µg/mL); in [15], 0.89 µM (≈ 2 µg/mL).
With `CC[C@H](C)[C@H](N)C(=O)N[C@@H](C)C(=O)N[C@@H](CCCCN)C(=O)N[C@H](C(=O)N[C@@H](C)C(=O)NCC(=O)N[C@@H](CCCCN)C(=O)N[C@H](C(=O)N[C@@H](C)C(=O)N[C@@H](CCCCN)C(=O)N[C@H](C(=O)N[C@@H](C)C(=O)NCC(=O)N[C@@H](CCCCN)C(=O)N[C@H](C(=O)N[C@@H](C)C(N)=O)[C@@H](C)CC)[C@@H](C)CC)[C@@H](C)CC)[C@@H](C)CC` [IAKIAGKIAKIAGKIA], the MIC is 28.9 µM (≈ 45.2 µg/mL) in experiment [12], at least 116 µM in [13], at least 163 µM in experiment [14] and at least 163 µM in [15].
`CC[C@H](C)[C@H](NC(=O)[C@H](CCCCN)NC(=O)[C@@H](N)CCCN=C(N)N)C(=O)N[C@@H](CCCCN)C(=O)N[C@@H](CCCN=C(N)N)C(=O)N[C@@H](Cc1ccc(O)cc1)C(=O)N[C@@H](CC(C)C)C(=O)N[C@@H](CCCN=C(N)N)C(=O)N[C@@H](CCCN=C(N)N)C(=O)N[C@@H](CCSC)C(=O)N[C@@H](Cc1c[nH]c2ccccc12)C(=O)O` [RKIKRYLRRMW]: the MIC was 15.6 µM (≈ 25 µg/mL) in [16]; 15.6 µM (≈ 25 µg/mL) in experiment [17]; 15.6 µM (≈ 25 µg/mL) in [18]; 7.78 µM (≈ 12.5 µg/mL) in experiment [19]; at least 125 µM in experiment [20].
For the compound `CC(C)C[C@H](NC(=O)[C@H](CC(C)C)NC(=O)[C@H](Cc1c[nH]c2ccccc12)NC(=O)[C@H](Cc1c[nH]c2ccccc12)NC(=O)[C@H](Cc1c[nH]c2ccccc12)NC(=O)[C@@H](N)CCCN=C(N)N)C(N)=O` [RWWWLL], the MIC against Escherichia coli UB1005 is 16 µM (≈ 15.3 µg/mL); in experiment [21] it was 32 µM (≈ 30.7 µg/mL); in experiment [22], 8 µM (≈ 7.67 µg/mL); in [23], at least 64 µM; in experiment [24] it was 16 µM (≈ 15.3 µg/mL); in [25], at least 64 µM. The MIC in experiment [26] was 16 µM (≈ 15.3 µg/mL); in [27], 8 µM (≈ 7.67 µg/mL); in [28], at least 64 µM; in experiment [29], at least 64 µM; with Escherichia coli K99, 16 µM (≈ 15.3 µg/mL); in [30], at least 64 µM. Further, the MIC is at least 64 µM in experiment [31], over 64 µM in experiment [32] and 16 µM (≈ 15.3 µg/mL) against Escherichia coli K88.
